From US11026427B2, “Microbiocidal oxadiazole derivatives” (SYNGENTA PARTICIPATIONS AG, priority 2016, dated 2021)

Key:
[1] = tested on: Phakopsora pachyrhizi; assay: Phakopsora pachyrhizi / soybean / leaf disc preventative (Asian soybean rust); format: in vivo; details: foliar, 200 ppm in the applied formulation, compared to untreated control, read-out: disease control
Outline: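 Read-out is percent disease control relative to untreated check discs, assessed once untreated discs show adequate disease, 12 to 14 days after application. Compounds, tested at 200 ppm in the applied formulation, are sprayed onto soybean leaf discs one day before inoculation with a spore suspension.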

[2] = tested on: Glomerella lacenarium (Colletotrichum lacenarium); assay: Glomerella lacenarium (Colletotrichum lacenarium) liquid culture / cucumber / preventative (anthracnose); format: cell-based; details: 20 ppm in the applied formulation, growth inhibition measured photometrically, compared to untreated control, read-out: disease control
Outline: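 PDB broth seeded with cryo-stored conidia, added onto compound (DMSO solution) in 96-well plates; 24° C.; photometric growth read at 3–4 d post-application; % inhibition vs untreated check.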

[3] = tested on: Uromyces viciae-fabae; assay: Uromyces viciae-fabae / field bean / leaf disc preventative (faba-bean rust); format: in vivo; details: foliar, 288 h, 100 ppm in the applied formulation, compared to untreated control, read-out: disease control
Description: Leaf disks or leaf segments of various plant species are cut from plants grown in a greenhouse. The cut leaf disks or segments are placed in multiwell plates (24-well format) onto water agar. The leaf disks are sprayed with a test solution before (preventative) or after (curative) inoculation. Compounds to be tested are prepared as DMSO solutions (max. 10 mg/ml) which are diluted to the appropriate concentration with 0.025% Tween20 just before spraying. The inoculated leaf disks or segments are incubated under defined conditions (temperature, relative humidity, light, etc.) according to the respective test system. A single evaluation of disease level is carried out 3 to 14 days after inoculation, depending on the pathosystem. Percent disease control relative to the untreated check leaf disks or segments is then calculated.
Field bean leaf discs are placed on water agar in multiwell plates (96-well format) and 10 μl of the formulated test compound diluted in acetone and a spreader pipetted onto the leaf disc. Two hours after application leaf discs are inoculated by spraying a spore suspension on the lower leaf surface. The leaf discs are incubated in a climate cabinet at 22° C. with 18 hour day and 70% relative humidity. The activity of a compound is assessed as percent disease control compared to untreated when an appropriate level of disease damage appears in untreated check leaf disks (12 days after application).
The following compounds at 100 ppm in the applied formulation give at least 80% disease control in this test when compared to untreated control leaf discs under the same conditions, which show extensive disease development.

[4] = tested on: Puccinia recondita f. Sp. tritici; assay: Puccinia recondita f. sp. tritici / wheat / leaf disc preventative (brown rust); format: in vivo; details: foliar, 200 ppm in the applied formulation, compared to untreated control, read-out: disease control
Outline: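 Preventative leaf-segment test: compound at 200 ppm applied by spray to Kanzler wheat, with spore inoculation following after one day. Disease control relative to untreated check read 7 to 9 days post-application, incubation at 19° C., 75% relative humidity, 12 h light/12 h dark.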

[5] = tested on: Puccinia recondita f. Sp. tritici; assay: Puccinia recondita f. sp. tritici / wheat / leaf disc curative (brown rust); format: in vivo; details: foliar, 200 ppm in the applied formulation, compared to untreated control, read-out: disease control
Outline: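 Curative leaf-segment test, cv. Kanzler: spore inoculation, dark storage 19° C/75% RH, compound spray 1 day post-inoculation. Then 12 h light/12 h dark, 19° C, 75% RH. Read-out: % disease control vs untreated check, 6–8 d after application.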

| Structure (SMILES) | melting point | pest or weed control at 200 ppm [1] | inhibition of growth at 20 ppm [2] | pest or weed control at 100 ppm [3] | pest or weed control at 200 ppm [4] | pest or weed control at 200 ppm [5] |
| --- | --- | --- | --- | --- | --- | --- |
| Cc1ccsc1C(=O)c1ccc(-c2noc(C(F)(F)F)n2)cc1 [Compound 1.12, (3-methyl-2-thienyl)-[4-[5-(trifluoromethyl)-1,2,4-oxadiazol-3-yl]phenyl]methanone] | – | ≥ 80% | ≥ 80% | ≥ 80% | – | – |
| O=C(c1ccc(F)cc1)c1ccc(-c2noc(C(F)(F)F)n2)cc1 [Compound 1.1, (4-fluorophenyl)-[4-[5-(trifluoromethyl)-1,2,4-oxadiazol-3-yl]phenyl]methanone] | 125 to 135 °C | ≥ 80% | – | ≥ 80% | – | – |
| C=C(C)C(O)c1ccc(-c2noc(C(F)(F)F)n2)cc1 (stereo not drawn) [Compound 2.8, 2-methyl-1-[4-[5-(trifluoromethyl)-1,2,4-oxadiazol-3-yl]phenyl]prop-2-en-1-ol] | – | ≥ 80% | ≥ 80% | ≥ 80% | – | – |
| CC(C)CC(=O)c1ccc(-c2noc(C(F)(F)F)n2)cc1 [Compound 1.10, 3-methyl-1-[4-[5-(trifluoromethyl)-1,2,4-oxadiazol-3-yl]phenyl]butan-1-one] | – | ≥ 80% | – | ≥ 80% | – | – |
| O=C(c1ccccc1)c1ccc(-c2noc(C(F)(F)F)n2)cc1 [Compound 1.3, phenyl-[4-[5-(trifluoromethyl)-1,2,4-oxadiazol-3-yl]phenyl]methanone] | 110 to 115 °C | ≥ 80% | ≥ 80% | ≥ 80% | – | – |
| C/C=C/CC(=O)c1ccc(-c2noc(C(F)(F)F)n2)cc1 [Compound 1.11, 1-[4-[5-(trifluoromethyl)-1,2,4-oxadiazol-3-yl]phenyl]pent-3-en-1-one] | – | ≥ 80% | ≥ 80% | ≥ 80% | – | – |

The next lines start with results.

| melting point | Structure (SMILES) | pest or weed control at 200 ppm [1] | inhibition of growth at 20 ppm [2] | pest or weed control at 100 ppm [3] | pest or weed control at 200 ppm [4] | pest or weed control at 200 ppm [5] |
| --- | --- | --- | --- | --- | --- | --- |
| 93 to 96 °C | CC#CC(O)c1ccc(-c2noc(C(F)(F)F)n2)cc1 (stereo not drawn) [Compound 2.6, 1-[4-[5-(trifluoromethyl)-1,2,4-oxadiazol-3-yl]phenyl]but-2-yn-1-ol] | ≥ 80% | ≥ 80% | ≥ 80% | ≥ 80% | ≥ 80% |
| 67 to 70 °C | COc1ccc(C(O)c2ccc(-c3noc(C(F)(F)F)n3)cc2)cc1 (stereo not drawn) [Compound 2.4, (4-methoxyphenyl)-[4-[5-(trifluoromethyl)-1,2,4-oxadiazol-3-yl]phenyl]methanol] | ≥ 80% | – | ≥ 80% | – | – |
| 63 to 69 °C | OC(c1ccccc1)c1ccc(-c2noc(C(F)(F)F)n2)cc1 (stereo not drawn) [Compound 2.2, phenyl-[4-[5-(trifluoromethyl)-1,2,4-oxadiazol-3-yl]phenyl]methanol] | ≥ 80% | ≥ 80% | ≥ 80% | ≥ 80% | – |
| 68 to 73 °C | Cc1ccsc1C(O)c1ccc(-c2noc(C(F)(F)F)n2)cc1 (stereo not drawn) [Compound 2.10, (3-methyl-2-thienyl)-[4-[5-(trifluoromethyl)-1,2,4-oxadiazol-3-yl]phenyl]methanol] | ≥ 80% | ≥ 80% | ≥ 80% | – | – |
